# Laboratory results published in patent publication US20200093801A1, “NEW METHODS FOR THE TREATMENT OF MULTIPLE SCLEROSIS” (Novartis AG, priority 2017, published 2020).
# “Also recorded” adds a separate entry of the source.
# How the values were obtained:
# MOG Peptide-Induced EAE = assay: MOG peptide-induced EAE; assay type: in vivo, Mice (C57BL/6J OlaHsd); settings: 100 and 150 mg/kg p.o. qd, day 14 to day 28 post-immunization; compared to vehicle
# Procedure: Mice (C57BL/6J OlaHsd) were commercially purchased from Harlan Laboratories BV (9 weeks old, females). All the animals were allowed to adapt for 7 days prior the start of the experiment and housed in IVC racks (max. 4 mice/XJ Type cage). The animals were given access to food and water ad libitum. Mice were immunized at with subcutaneous injection on the lower back of myelin oligodendrocyte glycoprotein peptide ([…]; in house produced; 200 μg/100 emulsified in 4 mg/ml complete Freund adjuvant (CFA, Sigma). Pertussis toxin (Fluka; 200 ng per mouse) was administered intraperitoneally on day 0 and day 2. Evaluation of EAE: The mice were observed and weighed daily. They were assessed for clinical signs on a scale from 0 to 5, with graduations of 0.5 for intermediate scores. 0: no clinical signs, 1: Limp tail/complete loss of tail tonus; 2: Clear hind limb weakness; 3: Complete bilateral hind limb paralysis; 4: Fore limbs and hind limbs paralysis; 5: Death. Supplementary food and gel food were provided inside the cage once first clinical signs appeared. Animals were treated for 14 days with 100 and 150 mg/kg of BLZ945, qd, p.o. 10 ml/kg from day 14 to day 28 post-immunization. BLZ945 was prepared in 0.5% methylcellulose in water and 0.1% Tween-80.
# [1] = tested on: Cuprizone-Induced Demyelination in Mice; assay: Cuprizone-induced demyelination in mice, brain histology / immunohistochemistry (169 mg/kg); assay type: in vivo, Mice (C57BL/6J); settings: 169 mg/kg p.o. qd, 2 weeks after 5 weeks 0.2% cuprizone
# From the text: Studies described below were approved by the Swiss Cantonal Veterinary Authority of Basel City, Switzerland, under the license number 2711. Mice (C57BL/6J) were commercially purchased from Charles River Laboratories, Germany or obtained from Novartis Pharma AG breeding colonies (8-9 weeks old, females). All the animals were allowed to adapt for 7 days prior the start of the experiment and housed in IVC racks (max. 4 mice/XJ Type cage). The animals were given access to food and water ad libitum. Animals were treated with cuprizone for 5 weeks. Cuprizone (Bis(cyclohexanone)oxaldihydrazone, Sigma-Aldrich) was mixed into rodent food pellets (0.2% w/w) by Provimi Kliba AG, Switzerland. Therapeutic treatment of animals after cuprizone was performed for 2 weeks on normal food with 169 mg/kg of BLZ945, qd, p.o. 10 ml/kg. BLZ945 was prepared in vehicle consisting of 0.5% methylcellulose in water and 0.1% Tween-80. Before killing 3 h after last BLZ945 dosing animals were perfused transcardially by phosphate-buffered saline (PBS), brains isolated and fixed in 4% paraformaldehyde (PFA) for 48 h at 4° C. After fixation brains were processed for paraffin embedding by dehydration through increasing ethanol series. Automated immunohistochemistry of paraffin sections was performed on 3 μm paraffin sections mounted on SuperFrost+ slides and automatically immunostained using the Discovery XT technology (Ventana/Roche Diagnostics). Briefly, sections were deparaffinized, rehydrated, subjected to antigen retrieval by heating with CC1 cell conditioning buffer, incubated for 1-3 hours at room temperature with primary antibody diluted in antibody diluent, incubated with the respective biotinylated secondary antibody diluted in antibody dilution, reacted with DABMab kit and counterstained with Hematoxylin II and Bluing Agent reagent (Ventana/Roche Diagnostics). Slides were washed with soap in hot tap water and rinsed under cold running tap water to remove the soap, then dehydrated and embedded with Pertex. Manual immunofluorescence staining of paraffin sections was performed on 3 μm paraffin sections. They were de-waxed and subjected to antigen retrieval (exception: GST-π) by microwaving for 15-20 minutes at 98° C. in 0.1 M citrate buffer pH 6.0 (quartett 400300692), the jar with slides were cooled to room temperature for 20-25 min and rinsed in 1×TBS (cell signaling 12498S) twice for 3 min. Endogenous peroxidase was quenched with Perox Block (Dako S2023) for 10 min, sections then washed with 1×TBS twice for 3 min and blocking with 10% normal goat serum (Dako X0907) in 1×TBS for 20 min performed. Sections were then incubated without rinsing with primary antibody for 60 min (MBP) or overnight (GST-pi, MOG) at room temperature. Sections were then washed in 1×TBS twice for 3 min and then incubated with secondary antibody for 30 min at room temperature. Sections were then washed with 1×TBS twice for 3 min and incubated with Vectastain ABC Elite Kit (Vector PK6100) for 30 min at room temperature, washed with 1×TBS twice for 3 min, incubated with DAB solution (Dako K3468) for 1-5 min. Sections were finally washed with distilled water twice for 2 min, counterstained with Hematoxylin (Dako S2020) for 3 min, again washed with running tap water for 5 min, dehydrated and embedded in Pertex. […]
# [2] = compared to control (normal food)
smiles,measurement,setting,value
"CNC(=O)c1cc(Oc2ccc3nc(N[C@@H]4CCCC[C@H]4O)sc3c2)ccn1 [BLZ945, 4-(2-((1R,2R)-2-hydroxycyclohexylamino)benzothiazol-6-yloxy)-N-methylpicolinamide]",EAE clinical score / disease progression,MOG Peptide-Induced EAE,did not alter disease progression; also recorded: No difference
same,EAE disease onset/incidences,MOG Peptide-Induced EAE,similar
same,Weight change in EAE mice,MOG Peptide-Induced EAE,similar
same,"Iba1+ microglia number compared to control, cortex",[1]; [2],lower number of Iba1+ microglia
same,"Iba1+ microglia number compared to control, striatum",[1]; [2],lower number of Iba1+ microglia
same,"GFAP-positive astrocytes (stained area), all brain areas",[1]; compared to vehicle,enhances astrocytes; also recorded: even further increases astrocyte numbers; also recorded: substantially higher in cortex and striatum than it is in the corpus callosum
same,"Iba1-positive microglia numbers, all brain areas analyzed (cortex, striatum, corpus callosum)",[1]; compared to vehicle treated animals,reduces microglia numbers; also recorded: significantly reducing this increase compared to vehicle treated animals
same,"GST-π positive mature oligodendrocytes (number of positive cells), cortex",[1]; immunohistochemistry,increases oligodendrocyte numbers; also recorded: did not reach control levels; also recorded: significantly increased after BLZ945 treatment compared to vehicle control
same,"GST-π positive mature oligodendrocytes (number of positive cells), striatum",[1]; immunohistochemistry,increases oligodendrocyte numbers; also recorded: significantly increased after BLZ945 treatment compared to vehicle control; also recorded: did not reach control levels
same,"Myelin basic protein (MBP) stained area, cortex",[1]; immunohistochemistry,enhances remyelination; also recorded: did not reach control levels; also recorded: significantly increased after BLZ945 treatment compared to vehicle control
same,"Myelin basic protein (MBP) stained area, striatum",[1]; immunohistochemistry,enhances remyelination; also recorded: did not reach control levels; also recorded: significantly increased after BLZ945 treatment compared to vehicle control
same,"GST-π positive oligodendrocytes, corpus callosum",[1]; vs cuprizone vehicle,not corpus callosum; also recorded: no difference
same,"Luxol fast blue (LFB) optical density, corpus callosum",[1]; vs cuprizone vehicle,no difference
same,"Myelin oligodendrocyte glycoprotein (MOG) optical density, corpus callosum",[1]; vs cuprizone vehicle,not corpus callosum; also recorded: no difference
